Test results as given in US10800785B2, “Substituted pyrrolo[2,3-d]pyridazin-4-ones and pyrazolo[3,4-d]pyridazin-4-ones as protein kinase inhibitors” (Shanghai Fochon Pharmaceutical Co., Ltd., priority 2016, dated 2020).

test system: DOHH2 cells; test: Cell proliferation assay (MTS) in DOHH2 cells, mechanism-based assay for BTK inhibition; conditions: Homo sapiens, DOHH-2, 120 h incubation, 5000 cells/well
Description: Cell Proliferation Assays
MTS testing kit was purchased from Promega. The DMEM, Fetal bovine serum and Penicillin-Streptomycin were purchased from Gibco. Dimethyl sulfoxide (DMSO) was purchased from Sigma.
To investigate whether a compound is able to inhibit the activity of BTK in cells, a mechanism-based assay using DOHH2 (DSMZ catalog#: ACC47) and Mino (ATCC® Number CRL-3000™) cells was developed. In this assay, inhibition of BTK was detected by the inhibition of DOHH2 and Mino cell proliferations. DOHH2 or Mino cells were cultured in culture flasks to 40-80% confluence in RPMI-1640 plus 10% fetal bovine serum. C ells were collected and plated onto 96-well plates at desired cell density (DOHH2: 5000 cells/well; Mino: 10000 cells/well). Plates were incubated overnight at 37° C., with 5% CO2 to adhere. Compounds were added to the plates, and the final compound concentrations were 10000, 3333, 1111, […], 41, 14, 4.6 and 1.5 nM. Plates were placed at 37° C., with 5% CO2 for 120 h (DOHH2) or 72 h (Mino). 20 μl MTS/100 μl medium mixture solution were added to each well and the plates were incubated for exactly 2 hours. The reaction was stopped by adding 25 μl 10% SDS per well.
Select compounds prepared as described above were assayed according to the biological procedures described herein.

Compound | IC50 [nM]
C=CC(=O)N1CC[C@H](c2nn(-c3ccc(Oc4ccccc4F)cc3)c3c(N)n[nH]c(=O)c23)C1 [Example 47, (S)-3-(1-acryloylpyrrolidin-3-yl)-7-amino-1-(4-(2-fluorophenoxy)phenyl)-1,5-dihydro-4H-pyrazolo[3,4-d]pyridazin-4-one] | 60
C=CC(=O)N1CC[C@@H](c2nn(-c3ccc(Oc4cc(F)cc(F)c4)cc3)c3c(N)n[nH]c(=O)c23)C1 [Example 46, (R)-3-(1-acryloylpyrrolidin-3-yl)-7-amino-1-(4-(3,5-difluorophenoxy)phenyl)-1,5-dihydro-4H-pyrazolo[3,4-d]pyridazin-4-one] | 59
C=CC(=O)N1CC[C@H](c2cn(-c3ccc(Oc4cccc(F)c4F)cc3)c3c(N)n[nH]c(=O)c23)C1 [Example 26, (R)-3-(1-acryloylpyrrolidin-3-yl)-7-amino-1-(4-(2,3-difluorophenoxy)phenyl)-1,5-dihydro-4H-pyrrolo[2,3-d]pyridazin-4-one] | 260
C=CC(=O)N1CCC[C@H](c2cn(-c3ccc(Oc4ccccc4F)cc3)c3c(N)n[nH]c(=O)c23)C1 [Example 35, (R)-3-(1-acryloylpiperidin-3-yl)-7-amino-1-(4-(2-fluorophenoxy)phenyl)-1,5-dihydro-4H-pyrrolo [2,3-d]pyridazin-4-one] | 33
C=CC(=O)N1CCC(c2cn(-c3ccc(Oc4c(F)cccc4F)cc3)c3c(N)n[nH]c(=O)c23)C1 (stereo not shown) [Example 3, 3-(1-acryloylpyrrolidin-3-yl)-7-amino-1-(4-(2,6-difluorophenoxy)phenyl)-1,5-dihydro-4H-pyrrolo[2,3-d]pyridazin-4-one] | 147
COC/C=C/C(=O)N1CCC[C@@H](c2cn(-c3ccc(Oc4ccccc4)cc3)c3c(N)n[nH]c(=O)c23)C1 [Example 101, (S,E)-7-amino-3-(1-(4-methoxybut-2-enoyl)piperidin-3-yl)-1-(4-phenoxyphenyl)-1,5-dihydro-4H-pyrrolo[2,3-d]pyridazin-4-one] | 208
CC#CC(=O)N1CCC[C@H](c2cn(-c3ccc(Oc4ccccc4)cc3)c3c(N)n[nH]c(=O)c23)C1 [Example 72, (R)-7-amino-3-(1-(but-2-ynoyl)piperidin-3-yl)-1-(4-phenoxyphenyl)-1,5-dihydro-4H-pyrrolo[2,3-d]pyridazin-4-one] | 260
C=CC(=O)N1CCC(c2cn(-c3ccc(Oc4ccccc4)cc3)c3c(N)n[nH]c(=O)c23)C1 (stereo not shown) [Example 1, 3-(1-acryloylpyrrolidin-3-yl)-7-amino-1-(4-phenoxyphenyl)-1,5-dihydro-4H-pyrrolo[2,3-d]pyridazin-4-one] | 36
C=CC(=O)N1CC(c2cn(-c3ccc(Oc4ccccc4F)cc3)c3c(N)n[nH]c(=O)c23)C1 [Example 111, 3-(1-acryloylazetidin-3-yl)-7-amino-1-(4-(2-fluorophenoxy)phenyl)-1,5-dihydro-4H-pyrrolo [2,3-d]pyridazin-4-one] | 261
C=CC(=O)N1CC[C@@H](c2cn(-c3ccc(Oc4ccccc4)cc3)c3c(N)n[nH]c(=O)c23)C1 [Example 9, (S)-3-(1-acryloylpyrrolidin-3-yl)-7-amino-1-(4-phenoxyphenyl)-1,5-dihydro-4H-pyrrolo[2,3-d]pyridazin-4-one] | 32
C=CC(=O)N1CCC[C@@H](c2cn(-c3ccc(Oc4cc(F)cc(F)c4)cc3)c3c(N)n[nH]c(=O)c23)C1 [Example 34, (S)-3-(1-acryloylpiperidin-3-yl)-7-amino-1-(4-(3,5-difluorophenoxy)phenyl)-1,5-dihydro-4H-pyrrolo[2,3-d]pyridazin-4-one] | 42
C=CC(=O)N1CC[C@@H](c2cn(-c3ccc(Oc4ccccc4F)cc3)c3c(N)n[nH]c(=O)c23)C1 [Example 17, (S)-3-(1-acryloylpyrrolidin-3-yl)-7-amino-1-(4-(2-fluorophenoxy)phenyl)-1,5-dihydro-4H-pyrrolo[2,3-d]pyridazin-4-one] | 21
C=CC(=O)N1CC[C@H](c2cn(-c3ccc(Oc4ccccc4)cc3)c3c(N)n[nH]c(=O)c23)C1 [Example 10, (R)-3-(1-acryloylpyrrolidin-3-yl)-7-amino-1-(4-phenoxyphenyl)-1,5-dihydro-4H-pyrrolo[2,3-d]pyridazin-4-one] | 20
CC#CC(=O)N1CCC[C@@H](c2nn(-c3ccc(Oc4c(F)cccc4F)cc3)c3c(N)n[nH]c(=O)c23)C1 [Example 85, (R)-7-amino-3-(1-(but-2-ynoyl)piperidin-3-yl)-1-(4-(2,6-difluorophenoxy)phenyl)-1,5-dihydro-4H-pyrazolo[3,4-d]pyridazin-4-one] | 435
C=CC(=O)N1CC[C@H](c2nn(-c3ccc(Oc4cc(F)cc(F)c4)cc3)c3c(N)n[nH]c(=O)c23)C1 [Example 52, (S)-3-(1-acryloylpyrrolidin-3-yl)-7-amino-1-(4-(3,5-difluorophenoxy)phenyl)-1,5-dihydro-4H-pyrazolo[3,4-d]pyridazin-4-one] | 321
CC#CC(=O)N1CC[C@@H](c2nn(-c3ccc(Oc4ccccc4)cc3)c3c(N)n[nH]c(=O)c23)C1 [Example 65, (R)-7-amino-3-(1-(but-2-ynoyl)pyrrolidin-3-yl)-1-(4-phenoxyphenyl)-1,5-dihydro-4H-pyrazolo[3,4-d]pyridazin-4-one] | 505
C=CC(=O)N1CCC[C@@H](c2cn(-c3ccc(Oc4ccccc4)cc3)c3c(N)n[nH]c(=O)c23)C1 [Example 11, (S)-3-(1-acryloylpiperidin-3-yl)-7-amino-1-(4-phenoxyphenyl)-1,5-dihydro-4H-pyrrolo[2,3-d]pyridazin-4-one] | 40
C=CC(=O)N1CCC[C@@H](c2cn(-c3ccc(Oc4cccc(F)c4F)cc3)c3c(N)n[nH]c(=O)c23)C1 [Example 32, (S)-3-(1-acryloylpiperidin-3-yl)-7-amino-1-(4-(2,3-difluorophenoxy)phenyl)-1,5-dihydro-4H-pyrrolo[2,3-d]pyridazin-4-one] | 58
C=CC(=O)N1CCC(c2cn(-c3ccc(Oc4ccccc4)cc3)c3c(N)n[nH]c(=O)c23)CC1 [Example 112, 3-(1-acryloylpiperidin-4-yl)-7-amino-1-(4-phenoxyphenyl)-1,5-dihydro-4H-pyrrolo[2,3-d]pyridazin-4-one] | 78
CC#CC(=O)N1CC[C@@H](c2cn(-c3ccc(Oc4c(F)cccc4F)cc3)c3c(N)n[nH]c(=O)c23)C1 [Example 83, (S)-7-amino-3-(1-(but-2-ynoyl)pyrrolidin-3-yl)-1-(4-(2,6-difluorophenoxy)phenyl)-1,5-dihydro-4H-pyrrolo[2,3-d]pyridazin-4-one] | 456
COC/C=C/C(=O)N1CC[C@@H](c2cn(-c3ccc(Oc4ccccc4)cc3)c3c(N)n[nH]c(=O)c23)C1 [Example 91, (S,E)-7-amino-3-(1-(4-methoxybut-2-enoyl)pyrrolidin-3-yl)-1-(4-phenoxyphenyl)-1,5-dihydro-4H-pyrrolo[2,3-d]pyridazin-4-one] | 640
C=CC(=O)N1CCC[C@H](c2nn(-c3ccc(Oc4ccccc4F)cc3)c3c(N)n[nH]c(=O)c23)C1 [Example 59, (S)-3-(1-acryloylpiperidin-3-yl)-7-amino-1-(4-(2-fluorophenoxy)phenyl)-1,5-dihydro-4H-pyrazolo [3,4-d]pyridazin-4-one] | 248
